Laboratory results as given in patent US10231933B2, “Enteric coated, soluble creatine and polyethylene glycol composition for enhanced skeletal uptake of oral creatine” (CRYXA LLC, priority 2007, dated 2019).

What was measured:
[1] = Muscle biopsy (vastus lateralis) ATP, creatine phosphate and creatine concentrations pre- and post-supplementation; type: in vivo, human
Method: The participants selected had the following characteristics:
Pre and post muscle biopsies were obtained from the vastus lateralis muscle. Samples were immediately frozen in liquid nitrogen and stored at −80° C. for later analysis. The frozen samples were weighed to the nearest 0.1 mg, freeze dried for 8 hours and reweighed. The tissue samples were extracted and then analyzed for creatine, creatine phosphate, and ATP content via […].

[2] = Blood chemistries pre- and post-supplementation; type: in vivo, human; design: ALT (SGPT): unit not given here
[3] = known; cited from earlier work
[4] = male, human, blood, oral, 20 gm/day
[5] = Post 5 days supplementation, muscle biopsy
[6] = post-suppl., 5 days, control 20 gm/day, experimental 10 gm/day creatine equivalent

CN(CC(=O)O)C(=N)N.O [creatine•H2O, creatine monohydrate]
time of peak blood concentration post-ingestion (5 hour sampling, experimental peak may not have been fully achieved): two hours
Integrated area under curve (5 hr sampling period post-ingestion): 91.8 ± 5.5 mg · dL^−1 · 5 hrs^−1
Circulating concentrations of creatine (Pre ingestion): 0.47 ± 0.35 mg/dL
concentration at 15 min [4]: 40.8 ± 11.4 µg/mL
concentration at 30 min [4]: 138 ± 18.6 µg/mL
concentration at 1 h [4]: 208 ± 18.7 µg/mL
concentration at 2 h [4]: 260 ± 29.6 µg/mL
concentration at 3 h [4]: 242 ± 12.9 µg/mL
concentration at 4 h [4]: 162 ± 11.3 µg/mL
concentration at 5 h [4]: 102 ± 8.5 µg/mL
time by which blood creatine concentrations increased significantly (post-ingestion): ≤ 15 min
peak blood concentration of creatine (within five hours post-ingestion): 25.99 ± 2.96 mg/dL
skeletal muscle uptake (comparison of the two) ([1]; 50 g creatine equivalents total (creatine HCl/PEG) vs 100 g total (creatine.H2O)): similar
ATP [1, 5]: 22.7 ± 1.2 μM · gdw^−1
Creatine [1, 5]: 39.2 ± 2.7 μM · gdw^−1
Creatine · ATP^−1 (ratio) [1, 5]: 2.01 ± 0.33 ratio
creatine phosphate [1, 5]: 75.6 ± 4.0 μM · gdw^−1
creatine phosphate/ATP^−1 [1, 5]: 3.34 ± 0.01
ATP ([1]; Pre, muscle biopsy): 21.6 ± 1.4 μM · gdw^−1
Creatine ([1]; Pre, muscle biopsy): 23.0 ± 4.2 μM · gdw^−1
Creatine · ATP^−1 (ratio) ([1]; Pre, muscle biopsy): 1.36 ± 0.36 ratio
creatine phosphate ([1]; Pre, muscle biopsy): 71.7 ± 4.8 μM · gdw^−1
creatine phosphate/ATP^−1 ([1]; Pre, muscle biopsy): 3.33 ± 0.01
muscle concentrations of free creatine and total creatine by the end of the study ([1]; end of 5 days supplementation): significantly elevated
CELLULAR ATP (molar ratio) [1, 6]: 5.07 ± 0.24 molar ratio
UPTAKE EFFICACY [1, 6]: 5.85 ± 1.85
free creatine [1, 6]: 39.2 ± 2.7 μM · gdw^−1
CELLULAR ATP (molar ratio) ([1]; pre-suppl., muscle biopsy): 4.48 ± 0.30 molar ratio
free creatine ([1]; pre-suppl., muscle biopsy): 23.0 ± 4.2 μM · gdw^−1
A/G Ratio (ratio) ([2]; Post): 1.88 ± 0.06 ratio
ALT (SGPT) ([2]; Post): 20.9 ± 4.1
AST (SGOT) ([2]; Post): 23.3 ± 2.1 IU · L^−1
Albumin, Serum ([2]; Post): 4.5 ± 0.1 g/dL
Alk. Phosphatase ([2]; Post): 85.4 ± 9.3 IU · L^−1
BUN ([2]; Post): 17.9 ± 1.8 mg/dL
BUN/Creatinine (ratio) ([2]; Post): 16.3 ± 1.4 ratio
Bilirubin, Total ([2]; Post): 0.6 ± 0.1 mg/dL
Calcium, Serum ([2]; Post): 9.7 ± 0.1 mg/dL
Carbon Dioxide ([2]; Post): 25.8 ± 0.7 mM · L^−1
Chloride, Serum ([2]; Post): 101.9 ± 0.7 mM · L^−1
Creatinine, Serum ([2]; Post): 1.09 ± 0.07 mg/dL
Globulin, Serum ([2]; Post): 2.4 ± 0.1 g/dL
Glucose, Serum ([2]; Post): 82.6 ± 4.3 mg/dL
Iron, Serum ([2]; Post): 103.3 ± 14.2 µg/dL
LDH ([2]; Post): 157.9 ± 8.2 IU · L^−1
Phosphorus, Serum ([2]; Post): 4.3 ± 0.3 mg/dL
Potassium, Serum ([2]; Post): 4.4 ± 0.1 mM · L^−1
Protein, Serum ([2]; Post): 6.9 ± 0.1 g/dL
Sodium, Serum ([2]; Post): 138.6 ± 0.6 mM · L^−1
Uric Acid, Serum ([2]; Post): 4.7 ± 0.2 mg/dL
A/G Ratio (ratio) ([2]; Pre): 1.77 ± 0.06 ratio
ALT (SGPT) ([2]; Pre): 24.1 ± 4.5
AST (SGOT) ([2]; Pre): 25.3 ± 3.6 IU · L^−1
Albumin, Serum ([2]; Pre): 4.5 ± 0.1 g/dL
Alk. Phosphatase ([2]; Pre): 78.7 ± 10.1 IU · L^−1
BUN ([2]; Pre): 16.4 ± 1.4 mg/dL
BUN/Creatinine (ratio) ([2]; Pre): 17.8 ± 1.3 ratio
Bilirubin, Total ([2]; Pre): 0.6 ± 0.1 mg/dL
Calcium, Serum ([2]; Pre): 9.9 ± 0.1 mg/dL
Carbon Dioxide ([2]; Pre): 26.7 ± 0.4 mM · L^−1
Chloride, Serum ([2]; Pre): 101.0 ± 0.5 mM · L^−1
Creatinine, Serum ([2]; Pre): 0.93 ± 0.04 mg/dL
Globulin, Serum ([2]; Pre): 2.6 ± 0.1 g/dL
Glucose, Serum ([2]; Pre): 86.7 ± 2.7 mg/dL
Iron, Serum ([2]; Pre): 88.8 ± 10.5 µg/dL
LDH ([2]; Pre): 155.0 ± 6.0 IU · L^−1
Phosphorus, Serum ([2]; Pre): 4.3 ± 0.1 mg/dL
Potassium, Serum ([2]; Pre): 4.3 ± 0.1 mM · L^−1
Protein, Serum ([2]; Pre): 7.1 ± 0.1 g/dL
Sodium, Serum ([2]; Pre): 139.1 ± 0.5 mM · L^−1
Uric Acid, Serum ([2]; Pre): 5.6 ± 0.3 mg/dL
breakdown in the stomach [3]: rapidly breaks down in the stomach to form creatinine
